# From patent publication US6423688B1, “Dipeptide and related compounds which inhibit leukocyte adhesion mediated by VLA-4” (Athena Neurosciences, Inc., priority 1997, dated 2002)
# Peptide text beside a SMILES is read from it. * marks the point of attachment. Tos = Cc1ccc(S(=O)(=O)*)cc1
row,melting point [°C],Compound
1,45 to 55,"Cc1ccc(S(=O)(=O)N2CCC[C@H]2C(=O)N[C@@H](CCC(N)=O)C(=O)O)cc1 [Example 5, N-(Toluene-4-sulfonyl)-L-prolyl-L-glutamine] (Tos-Pro-Gln-OH)"
2,178 to 180,"Cc1ccc(S(=O)(=O)N2CCC[C@H]2C(=O)N[C@@H](CC(N)=O)C(=O)O)cc1 [Example 2, N-(Toluene-4-sulfonyl)-L-prolyl-L-asparagine] (Tos-Pro-Asn-OH)"
